{
  "source": "patent US9682060B2",
  "about": "“Small molecules that induce intrinsic pathway apoptosis” (The Board of Trustees of the University of Illinois, priority 2015, dated 2017)",
  "key": {"recombinant procaspase-3": {"target": "T1, recombinant procaspase-3 (Homo sapiens, UniProt P42574)", "T1 construct": "His tag (inferred from the nickel-NTA purification); made in house", "T1 sequence (P42574 whole entry)": "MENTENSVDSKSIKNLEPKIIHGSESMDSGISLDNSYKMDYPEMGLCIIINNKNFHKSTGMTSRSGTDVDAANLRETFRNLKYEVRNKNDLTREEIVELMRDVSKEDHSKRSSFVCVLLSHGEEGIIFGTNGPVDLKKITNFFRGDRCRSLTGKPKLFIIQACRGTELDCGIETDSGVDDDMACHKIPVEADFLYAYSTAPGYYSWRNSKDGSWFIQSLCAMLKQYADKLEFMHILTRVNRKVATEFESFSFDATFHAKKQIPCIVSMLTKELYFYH", "assay": "In vitro activation of procaspase-3", "assay_type": "biochemical", "conditions": "up to 100 μM; 250 nM procaspase-3; Ac-DEVD-AFC cleavage", "protocol": "In Vitro Activation of Procaspase-3.\nProcaspase-3 was expressed as described previously and purified with Qiagen nickel-NTA resin (Hsu et al., 2012). Increasing concentrations of Raptinal (0, 10, 25, 50 and 100 μM) and 25 μM 1541B were assessed for their capacity to enhance the activity of procaspase-3 over time. 250 nM procaspase-3 was treated with compounds in caspase activity buffer (50 mM HEPES, 50 mM KCl, 0.1 mM EDTA, 10 mM DTT, 0.01% Triton X-100, pH 7.4) and activity was assessed by cleavage of Ac-DEVD-AFC (50 μM) at designated time points."}, "U-937": {"tested_on": "U-937", "assay": "Raptinal toxicity, 24 hour IC50 (MTS assay for suspension cells)", "assay_type": "cell-based", "conditions": "U-937 (Human Lymphoma); 24 hour incubation; mean ± SD", "protocol": "(§1) MTS Assay for Suspension Cells.\n(§2) Serial dilutions of compound in 100% DMSO were added in triplicate (2 μL to each well) to empty wells of a 96-well plate. Suspension cells (HL-60, U-937, SKW 6.4, Jurkat W T, Jurkat CASP8^−/−, Jurkat FADD^−/−, Jurkat Bcl-2) cells in RPMI 1640 media were added to 96-well plates (198 μL containing 4×10^4 cells) and the cells incubated for 24 hours."}, "HL-60": {"tested_on": "HL-60", "assay": "Raptinal toxicity, 24 hour IC50 (MTS assay for suspension cells)", "assay_type": "cell-based", "conditions": "HL-60 (Human Leukemia); 24 hour incubation; mean ± SD", "protocol": "as §1, §2"}, "SKW 6.4": {"tested_on": "SKW 6.4", "assay": "Raptinal toxicity, 24 hour IC50 (MTS assay for suspension cells)", "assay_type": "cell-based", "conditions": "SKW 6.4 (Human Lymphoma); 24 hour incubation; mean ± SD", "protocol": "as §1, §2"}, "Jurkat": {"tested_on": "Jurkat", "assay": "Raptinal toxicity, 24 hour IC50 (MTS assay for suspension cells)", "assay_type": "cell-based", "conditions": "Jurkat (Human Leukemia); 24 hour incubation; mean ± SD", "protocol": "as §1, §2"}, "HL-60 cells": {"tested_on": "HL-60 cells", "assay": "High-throughput cell death screen (MTS)", "assay_type": "cell-based, human", "conditions": "1 μM, 24 hours", "protocol": "High-Throughput Cell Death Screen.\nHL-60 cells were plated into 384 well plates (50 μL of 2×10^6 cells/mL per well) in RPMI cell culture media. Library compounds were transferred using a 384-pin transfer apparatus (V & P Scientific, San Diego) which transferred 0.1 μL from 10 mM DMSO stock solutions to achieve a final concentration of 20 μM. Controls containing DMSO only and 10 μM etoposide were used to serve as live and dead controls respectively. The cells were incubated for 24 hours."}, "caspase-3/-7": {"tested_on": "caspase-3/-7", "assay": "Caspase activity assay in cell lysate (Ac-DEVD-AFC)", "assay_type": "cell-based", "conditions": "10 μM"}, "[1]": {"tested_on": "cancer cell lines (HL-60, SK-MEL-5, U-937)", "assay": "Initial screens against cancer cell lines", "assay_type": "cell-based, Human"}, "U-937 cells [2]": {"tested_on": "U-937 cells", "assay": "Immunoblotting of caspase activation and PARP-1 cleavage", "assay_type": "cell-based, Human", "conditions": "10 μM", "protocol": "U-937 cells (3×10^6 cells in 2 mL RPMI) or SKW 6.4 cells (5×10^6 cells in 2 mL RPMI) were treated with compound (1% final DMSO v/v) for the appropriate period of time. After centrifugation and washing with PBS, cells were lysed with RIPA lysis buffer containing protease cocktail inhibitor III (Calbiochem) and cell debris removed by centrifugation (16000×g 5 min). The lysate concentrations were normalized after determination of protein concentration by the Bradford assay and whole cell lysate (40-60 μg) was resolved by 4-20% gradient SDS-PAGE gel electrophoresis at 120 V for 70 min after which proteins were transferred onto PVDF membranes (60 V for 2 hours) and blocked in 5% BSA or fat-free milk in TBST (as per primary antibody manufacturer's instructions) overnight at 4° C. The membranes were blotted for molecules of interest with primary antibody (1:1000 in 5% BSA or milk in TBST) overnight at 4° C. The bound primary antibodies were detected using appropriate secondary HRP conjugated antibodies (1:5000 in TBST) for 1 hour at room temperature and visualized by ECL autoradiography or with an Image Quant LAS 4010. The membranes were stripped in acidic methanol, blocked and re-probed as necessary.\nInduction of Necroptosis and Observation of Phospho-MLKL by Immunoblot.\n[…]. Cells were then treated with TNFα (10 ng/ml) in the presence of cycloheximide (20 μg/ml) for (1% final DMSO v/v) for the appropriate period of time. After centrifugation and washing with PBS, cells were lysed with RIPA lysis buffer containing protease cocktail inhibitor III (Calbiochem) and Phosphatase Inhibitor IV (BioVision). Samples were further processed for immunblot analysis as described above."}, "U-937 cells [3]": {"tested_on": "U-937 cells", "assay": "Annexin V/PI cell viability analysis", "conditions": "U-937 cells; 10 μM; time course AV/PI, based on data in FIG. 1F"}},
  "note": "“Also recorded” adds a separate entry of the source.",
  "data": [
    {"smiles": "O=CC1(C2(C=O)c3ccccc3-c3ccccc32)c2ccccc2-c2ccccc21", "note": "[Raptinal, [9,9′]bifluorenyl-9,9′-dicarbaldehyde]", "values": [
      {"measurement": "direct activation of recombinant procaspase-3 (enzymatic activity)", "setting": "recombinant procaspase-3", "result": "does not directly activate; also recorded: no increase in enzymatic activity"},
      {"measurement": "IC50", "setting": "U-937", "result": "0.7 ± 0.3", "unit": "µM"},
      {"measurement": "IC50", "setting": "HL-60", "result": "2.1 ± 1.4", "unit": "µM"},
      {"measurement": "IC50", "setting": "SKW 6.4", "result": "1.1 ± 0.1", "unit": "µM"},
      {"measurement": "IC50", "setting": "Jurkat", "result": "2.7 ± 0.9", "unit": "µM"},
      {"measurement": "cell death in retest of screen hits", "setting": "HL-60 cells", "result": "quantitative cell death"},
      {"measurement": "induction of caspase-3/-7 activity compared to other apoptosis inducing agents", "setting": "caspase-3/-7", "result": "faster induction of caspase-3/-7 activity and higher peak levels"},
      {"measurement": "IC50", "setting": "[1]; Homo sapiens, HL-60, SK-MEL-5, U-937, 24 hour assays", "result": "0.15 to 0.7", "unit": "µM"},
      {"measurement": "cell death after short treatment and washout", "setting": "[1]; cancer cells treated 1 hour, extensive washing to remove compound, read at 24-hour mark", "result": "significant cell death"},
      {"measurement": "time of activation of initiator caspase-9", "setting": "U-937 cells [2]", "result": 20, "unit": "min"},
      {"measurement": "time to complete cleavage of procaspase-9, procaspase-8 and procaspase-3", "setting": "U-937 cells [2]", "result": "≤ 45", "unit": "min"},
      {"measurement": "cleavage of procaspase-1 (pyroptosis/pyronecrosis)", "setting": "U-937 cells [2]; Western blot", "result": "neither"},
      {"measurement": "activation of procaspase-3 to caspase-3 (immunoblot)", "setting": "U-937 cells [2]; one hour treatment", "result": "complete activation"},
      {"measurement": "cleavage of PARP-1 (116 to 89 kDa form)", "setting": "U-937 cells [2]; one hour, versus the other toxins", "result": "Significantly more abundant cleavage"},
      {"measurement": "Time to 50% death", "setting": "U-937 cells [3]", "result": 1.5, "unit": "h"}
    ]}
  ]
}
